Data from patent US20210346460A1, “TREATMENTS FOR COVID-19-RELATED SYSTEMIC SCLEROSIS, VASCULAR INSUFFICIENCY, DISTAL ISCHEMIA, AND RELATED DISEASE CONDITIONS” (priority 2020, published 2021).
Entries after “also recorded” stand apart in the source; their conditions may differ. Where two headings read alike, the source gives them in different places.

How the values were obtained:
[1] = tested on: pregnant uterine arteries; assay: PGI2 release in pregnant uterine arteries
Description: (§1) Accordingly, as may be observed, there is an inverse relationship depending on the vascular circuit.
(§2) With reference to FIGS. 5A and 5B, the inventor's laboratory data indicates the presence of GABA-a receptors in both systemic vessels and uterine vessel in pregnant animals. […] It may be noted that the third and last columns of FIG. 5A and the last two columns of FIG. 5B reflect competition on the GABA-a receptor between GABA and bicuculine. GABA improves PGI2 response substantially more in the absence of GABA-a receptor competition (e.g., bicuculine); and GABA with bicuculine improves PGI2 response substantially more than bicuculine alone.
(§3) With reference to FIG. 6, the inventor's laboratory data further illustrates that when the endothelium is removed from the pregnant uterine and systemic vessels, respectively, the PGI2 release trends that had been seen in the intact vessels is reversed. As may be observed, PGI2 release in pregnant uterine vessels is reduced in the presence of AII when the endothelium is removed; inversely, PGI2 release in pregnant systemic vessels is increased in the presence of AII when the endothelium is removed.
FIG. 1A illustrates an Ouabain Dose Response Curve (“ODRC”) in pregnant uterine tissue. […] This may indicate inactivity of the GABA-a/AT1 construct without Taurine. It may have been expected that substantially less PGI2 would be released without AII than with AII. […] This may indicate an active GABA-a/AT1 construct under such conditions. […] Accordingly, the inventor has surmised that non-pregnant normotensive systemic vessel behave similarly to pregnant uterine vessels when exposed to Ouabain, releasing higher levels of PGI2 in the presence of GABA and AII.
This increase in PGI2 release in the presence of higher Ouabain may explain the EO resistance noted in pregnancy.

Cyclooxygenase (COX) = conditions: humans or rats, pharmacological blockade of COX; cited from earlier work
[2] = cited from earlier work
[3] = tested on: intact nonpregnant systemic vessels; assay: PGI2 release in intact nonpregnant systemic vessels (GABA dose response curves); design: species or system sheep; conditions: for PGI2 levels on addition of Nanomolar Ouabain: most concentrations of GABA
Description: In FIGS. 2A-2C, GABA dose response curves of systemic vessels in 18 day postpartum sheep are provided. These vessels are believed to be representative of non-pregnant normotensive systemic vessels. […] Accordingly, it appears that at least one of Taurine or EO (or the like) may be needed to up-regulate the GABA-a receptor to augment PGI2 levels in the presence of nanomolar ouabain, or may at least be substantially helpful to increase PGI2 levels.
In FIG. 2C, the systemic vessels react to variable GABA in a similar manner as pregnant uterine vessels (see, e.g., FIG. 1B), but only in the presence of Ouabain.
Accordingly, the inventor has unexpectedly discovered that Ouabain exposure may modulate the PGI2 response through interaction with the GABA-a/AT1 construct.

[4] = tested on: pregnant systemic arteries; assay: PGI2 release in pregnant systemic arteries
Description: During experimentation between uterine vessels and systemic vessels during pregnancy, an inverse response between uterine and systemic vessels and their levels of PGI2 release was found. […] Pregnant uterine vessels, however, required GABA and angiotensin II to increase PGI2. The inventor has surmised that this mechanism is likely feto-productive in cases of hemorrhage and low blood volume during pregnancy. During these times, AII increases, dilating the uterine circuit and constricting the systemic circuit, thereby allowing the maternal blood to pass by the baby, prolonging the baby's chances of survival.
as §1, §2, §3

With `NCCS(=O)(=O)O` [Taurine, 2-amino-ethane sulfonic acid] the “Overall PGI2 release with versus without Taurine” value ([1]; pregnant uterine arteries, regardless of AII presence (FIG. 1A vs 1B)) was “overall PGI2 release appears higher without Taurine”.

For `CC(=O)Oc1ccccc1C(=O)O` [aspirin], the Resting blood pressure (Cyclooxygenase (COX)) is given as “does not substantially affect resting blood pressure”.

For `COc1ccc2c(c1)c(CC(=O)O)c(C)n2C(=O)c1ccc(Cl)cc1` [indomethacin], the Resting blood pressure (Cyclooxygenase (COX)) is listed as “does not substantially affect resting blood pressure”.

In the case of `NCCCC(=O)O` [GABA], the Blood pressure ([2]; normotensive patients) is listed as “no effect”, the “PGI2 response to GABA” value ([3]; 18 day postpartum sheep systemic vessels, no EO or Taurine (FIG. 2A)) is listed as “no PGI2 response” and the “PGI2 release on addition of GABA” value ([1]; pregnant uterine arteries, GABA alone, no AII (FIG. 5B col. 2)) is listed as “insignificant effect on PGI2 release”. For the same molecule, the “PGI2 release on addition of GABA and AII” value ([1]; pregnant uterine arteries, GABA with AII (FIG. 5B col. 1)) was “increased PGI2 release” and the “PGI2 release on exposure to GABA” value ([4]; pregnant systemic vessels, absence of angiotensin II) was “increased PGI2 release”.

For Angiotensin II [AII], the “PGI2 formation by presence or absence of Angiotensin II” value ([3]; 18 day postpartum sheep, intact systemic vessels exposed to GABA, without Taurine or EO (FIG. 2A)) was “no significant PGI2 formation”, the “PGI2 release on addition of AII” value ([3]; in the presence of Ouabain, especially at higher concentrations of GABA (FIGS. 2B vs 2C)) was “substantially more PGI2 release” and the “Effect of presence or absence of AII on PGI2 release” value ([1]; pregnant uterine arteries, GABA provided, without taurine, various levels of Ouabain (FIG. 1A)) was “negligible effect on PGI2 release”. The “PGI2 release on further addition of AII” value ([1]; pregnant uterine arteries, bicuculine and GABA present (FIG. 5B col. 4)) was “even further decreased PGI2”, the “PGI2 release with versus without AII” value ([1]; pregnant uterine circuit, most levels of GABA, no Taurine, no Ouabain (FIG. 3A)) was “more PGI2 is released in the presence of AII” and the “PGI2 release in the presence of AII, endothelium removed” value ([1]; pregnant uterine vessels, endothelium removed (FIG. 6)) was “reduced”. For the same molecule, the “Relationship between PGI2 release and AII presence” value ([4]; pregnant systemic circuit, various GABA levels, compared with uterine circuit (FIG. 3B)) was “substantially inverted” and the “PGI2 release in the presence of AII, endothelium removed” value ([4]; pregnant systemic vessels, endothelium removed (FIG. 6)) was “increased”.

In the case of `C[C@@H]1O[C@@H](O[C@H]2C[C@@H](O)[C@]3(CO)[C@H]4[C@H](O)C[C@]5(C)[C@@H](C6=CC(=O)OC6)CC[C@]5(O)[C@@H]4CC[C@]3(O)C2)[C@H](O)[C@H](O)[C@H]1O` [Ouabain], the “PGI2 levels on addition of Nanomolar Ouabain” value ([3]; with AII, no Taurine (FIG. 2C)) is reported as “significant increase in PGI2 levels”, the “PGI2 levels on addition of Nanomolar Ouabain” value ([3]; without AII, no Taurine (FIG. 2B)) is reported as “significant increase in PGI2 levels” and the “PGI2 release with increase in Ouabain” value ([1]; pregnant uterine vessels, Ouabain from 10^−10 M to 10^−9 M, low taurine, GABA approx. −7 M (FIGS. 4A, 4B)) is reported as “higher PGI2 release”.

For `CCCCOC(=O)NS(=O)(=O)c1sc(CC(C)C)cc1-c1ccc(Cn2ccnc2)cc1` [C21], the Blood pressure ([2]; eHTN humans) is listed as “not shown to reduce blood pressure”.

For `CN1CCc2cc3c(cc2[C@H]1[C@@H]1OC(=O)c2c1ccc1c2OCO1)OCO3` [bicuculine], the “PGI2 release on blocking GABA-a receptors” value ([1]; pregnant uterine arteries, even when additional GABA was added (FIG. 5B)) was “reduced PGI2 release in both circuits; also recorded: substantially reduced PGI2 release” and the “PGI2 release on blocking GABA-a receptors” value ([4]; pregnant systemic vessels (FIG. 5A)) was “reduced PGI2 release in both circuits”.
